Literature values, collected in patent US20130338178A1, “SIRTUIN MODULATORS AS INHIBITORS OF CYTOMEGALOVIRUS” (THE TRUSTEES OF PRINCETON UNIVERSITY, priority 2011, published 2013).

Assays:
[1] = test system: sirtuin; conditions: cited from earlier work; for % Activity at 50 μM / % Activity at 500 μM: residual enzyme activity relative to control with no inhibitor; for IC50: analogs of compound 12
[2] = target: T1, SIRT1 (Homo sapiens, UniProt Q96EB6); conditions: SIRT1 preincubated with NAD+ and compound, means ± SD, cited from earlier work
T1 sequence (Q96EB6 1-747): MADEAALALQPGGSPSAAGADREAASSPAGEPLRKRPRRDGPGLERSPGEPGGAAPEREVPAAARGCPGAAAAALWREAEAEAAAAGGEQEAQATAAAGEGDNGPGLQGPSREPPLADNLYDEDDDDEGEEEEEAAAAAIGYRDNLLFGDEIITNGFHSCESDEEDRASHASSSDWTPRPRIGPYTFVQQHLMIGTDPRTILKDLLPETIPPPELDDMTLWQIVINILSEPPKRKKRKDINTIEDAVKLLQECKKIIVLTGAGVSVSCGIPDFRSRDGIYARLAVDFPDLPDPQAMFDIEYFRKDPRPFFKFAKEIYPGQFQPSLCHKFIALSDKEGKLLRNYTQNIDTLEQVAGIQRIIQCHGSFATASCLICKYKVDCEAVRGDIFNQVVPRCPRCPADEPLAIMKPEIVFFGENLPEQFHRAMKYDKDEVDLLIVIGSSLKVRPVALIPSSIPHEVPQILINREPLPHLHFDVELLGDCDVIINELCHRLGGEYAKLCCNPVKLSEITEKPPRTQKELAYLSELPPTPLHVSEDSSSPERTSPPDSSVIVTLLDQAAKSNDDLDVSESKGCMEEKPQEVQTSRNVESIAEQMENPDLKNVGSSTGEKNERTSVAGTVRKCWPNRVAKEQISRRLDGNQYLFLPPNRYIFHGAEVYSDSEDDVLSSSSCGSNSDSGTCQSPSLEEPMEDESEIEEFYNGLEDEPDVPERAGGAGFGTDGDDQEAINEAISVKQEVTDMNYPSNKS

[3] = target: T2, SIRT2 (Homo sapiens, UniProt Q8IXJ6); conditions: cited from earlier work
T2 sequence (Q8IXJ6 1-389): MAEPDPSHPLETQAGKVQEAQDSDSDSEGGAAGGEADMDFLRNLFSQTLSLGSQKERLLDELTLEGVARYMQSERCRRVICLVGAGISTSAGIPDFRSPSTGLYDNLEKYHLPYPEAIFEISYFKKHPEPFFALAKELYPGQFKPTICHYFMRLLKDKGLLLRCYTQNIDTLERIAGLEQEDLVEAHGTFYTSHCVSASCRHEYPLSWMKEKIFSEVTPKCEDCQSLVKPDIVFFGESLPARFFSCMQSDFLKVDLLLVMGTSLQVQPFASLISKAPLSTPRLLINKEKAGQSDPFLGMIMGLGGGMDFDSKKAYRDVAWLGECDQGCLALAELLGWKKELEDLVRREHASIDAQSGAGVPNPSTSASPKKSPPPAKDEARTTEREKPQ

Nc1cccc(Cc2cccc(N)c2)c1 [compound 56413]
% Activity at 50 μM [1]: 100% | % Activity at 500 μM [1]: 100%

CCCC(=O)CC(=O)NCCCC[C@H](NC(=O)OCc1ccccc1)C(=O)Nc1ccccc1 [2x]
inhibition at 300 μM (%) [2]: 78 ± 5.2%

C(=C1c2ccccc2-c2ccccc21)c1ccc(N=C2c3ccccc3-c3ccccc32)cc1 [CSC2]
Sirt2 effect [3]: inhibition

Cc1ccc2c(c1)CCC1C2CCC2(C)C(OC(=O)CCc3ccccc3)CCC12 (stereo not drawn) [CSC8]
Sirt2 effect [3]: inhibition

C[S+]([O-])CCC(C(=O)O)N1C(=O)c2ccccc2C1=O (stereo not drawn) [compound 00032]
IC50 [1]: No inhibition

COc1ccc2c(c1)Cc1cc(/N=[N+](\[O-])c3ccc4c(c3)Cc3cc(OC)ccc3-4)ccc1-2 [CSC32]
Sirt2 effect [3]: inhibition

OC(c1ccccc1)c1ccc(C(F)(F)F)cc1 (stereo not drawn) [compound 97211]
% Activity at 50 μM [1]: 100% | % Activity at 500 μM [1]: 81%

O=C(O)CCN1C(=O)c2ccc(-c3nc4ccccc4c(=O)o3)cc2C1=O [compound 47054]
IC50 [1]: No inhibition

CC(=O)CC(=O)NCCCC[C@H](NC(=O)OCc1ccccc1)C(=O)Nc1ccccc1 [2v]
inhibition at 300 μM (%) [2]: 45 ± 6.0% | IC50 [2]: > 300 µM

CCc1ccc(OCCCC(=O)Oc2ccc3c(C)cc(=O)oc3c2)cc1 [compound 6802623]
% Activity at 50 μM [1]: 86% | % Activity at 500 μM [1]: 53%

[H]/N=C(\c1ccc2ccccc2c1)c1ccccc1Cc1ccccc1 [CSC22]
Sirt2 effect [3]: inhibition

COc1ccc(OCCCC(=O)Oc2ccc3c(C)cc(=O)oc3c2)cc1 [compound 6959933]
% Activity at 50 μM [1]: 93% | % Activity at 500 μM [1]: 35%

CN(C)C(=O)CC(=O)NCCCC[C@H](NC(=O)OCc1ccccc1)C(=O)Nc1ccccc1 [2u]
inhibition at 300 μM (%) [2]: 20 ± 1.3% | IC50 [2]: > 300 µM

COc1cc2c(cc1O)CN(C)CC2 [7-133]
% Activity at 50 μM [1]: 100% | % Activity at 500 μM [1]: 98%

O=C(Cc1ccc([N+](=O)[O-])cc1)NCCCC[C@H](NC(=O)OCc1ccccc1)C(=O)Nc1ccccc1 [2i]
inhibition at 300 μM (%) [2]: 51 ± 17%

NC(=O)CC(=O)NCCCC[C@H](NC(=O)OCc1ccccc1)C(=O)Nc1ccccc1 [2s]
inhibition at 300 μM (%) [2]: 25 ± 2.3% | IC50 [2]: > 300 µM

C#CC1c2cc(O)c(OC)cc2CCN1C (stereo not drawn) [7-52]
% Activity at 50 μM [1]: 100% | % Activity at 500 μM [1]: 86%

CCCCOC(=O)CC(=O)NCCCC[C@H](NC(=O)OCc1ccccc1)C(=O)Nc1ccccc1 [2n]
inhibition at 300 μM (%) [2]: 64 ± 6.1% | IC50 [2]: 73 ± 3.2 µM

CNC(=O)CC(=O)NCCCC[C@H](NC(=O)OCc1ccccc1)C(=O)Nc1ccccc1 [2t]
inhibition at 300 μM (%) [2]: 24 ± 2.5% | IC50 [2]: > 300 µM

COCC#CC1(C)c2cc(O)c(OC)cc2CCN1C (stereo not drawn) [7-123]
% Activity at 50 μM [1]: 100% | % Activity at 500 μM [1]: 100%

O=C(O)CCN1C(=O)c2cc(Cl)c(Cl)cc2C1=O [compound 39008]
IC50 [1]: No inhibition

Cc1cc(N2CCOCC2)nc2ccc(Cc3ccc4nc(N5CCOCC5)cc(C)c4c3)cc12 [CSC4]
Sirt2 effect [3]: inhibition

Oc1ccc(Cc2ccccc2)cc1 [compound 72030]
% Activity at 50 μM [1]: 100% | % Activity at 500 μM [1]: 88%

CCC(=O)CC(=O)NCCCC[C@H](NC(=O)OCc1ccccc1)C(=O)Nc1ccccc1 [2w]
inhibition at 300 μM (%) [2]: 67 ± 1.2% | IC50 [2]: 88 ± 3.9 µM

COC(=O)CC(=O)NCCCC[C@H](NC(=O)OCc1ccccc1)C(=O)Nc1ccccc1 [2j]
inhibition at 300 μM (%) [2]: 92 ± 1.2% | IC50 [2]: 35 ± 5.2 µM

COC/C=C\C1c2cc(O)c(OC)cc2CCN1C (stereo not drawn) [7-129]
% Activity at 50 μM [1]: 97% | % Activity at 500 μM [1]: 94%

CC(C)C(=O)CCN1C(=O)c2ccccc2C1=O [compound 04265]
IC50 [1]: No inhibition

Cc1ccc(OCCCC(=O)Oc2ccc3c(C)cc(=O)oc3c2)cc1 [compound 6836332]
% Activity at 50 μM [1]: 99% | % Activity at 500 μM [1]: 57%

O=C(CC(=O)OCC1CC1)NCCCC[C@H](NC(=O)OCc1ccccc1)C(=O)Nc1ccccc1 [2p]
inhibition at 300 μM (%) [2]: 93 ± 1.2% | IC50 [2]: 14 ± 2.6 µM

Cc1cccc(OCC(=O)Oc2ccc3c(C)cc(=O)oc3c2)c1 [compound 5140108]
% Activity at 50 μM [1]: 90% | % Activity at 500 μM [1]: 13%

O=C(O)CCCN1C(=O)c2ccccc2C1=O [compound 47032]
IC50 [1]: No inhibition

Cc1cc(=O)oc2cc(OC(=O)COc3ccccc3)ccc12 [compound 5237467]
% Activity at 50 μM [1]: 91% | % Activity at 500 μM [1]: 45%

COCCCC1c2cc(O)c(OC)cc2CCN1C (stereo not drawn) [7-128]
% Activity at 50 μM [1]: 99% | % Activity at 500 μM [1]: 92%

O=C(CC(F)(F)F)NCCCC[C@H](NC(=O)OCc1ccccc1)C(=O)Nc1ccccc1 [2b]
inhibition at 300 μM (%) [2]: 44 ± 17% | IC50 [2]: > 300 µM

O=C(CC(=O)c1ccccc1)NCCCC[C@H](NC(=O)OCc1ccccc1)C(=O)Nc1ccccc1 [2z]
inhibition at 300 μM (%) [2]: 37 ± 7.4% | IC50 [2]: > 300 µM

CC12Cc3cnc(-c4ccccc4)nc3CC1CCC1C2CCC2(C)C1CCC2(C)O (stereo not drawn) [CSC13]
Sirt2 effect [3]: inhibition

O=C(Cc1ccccc1C(F)(F)F)NCCCC[C@H](NC(=O)OCc1ccccc1)C(=O)Nc1ccccc1 [2f]
inhibition at 300 μM (%) [2]: 49 ± 13% | IC50 [2]: > 300 µM

O=C(Cc1ccc(C(F)(F)F)cc1)NCCCC[C@H](NC(=O)OCc1ccccc1)C(=O)Nc1ccccc1 [2g]
inhibition at 300 μM (%) [2]: 41 ± 20% | IC50 [2]: > 300 µM

CCCOC(=O)CC(=O)NCCCC[C@H](NC(=O)OCc1ccccc1)C(=O)Nc1ccccc1 [2l]
inhibition at 300 μM (%) [2]: 71 ± 0.72% | IC50 [2]: 62 ± 3.7 µM

COCC#CC1c2cc(O)c(OC)cc2CCN1Cc1ccc(OC)cc1 (stereo not drawn) [Compound 14b]
% Activity at 50 μM [1]: 92% | % Activity at 500 μM [1]: 2%

CC(C)(C)OC(=O)CC(=O)NCCCC[C@H](NC(=O)OCc1ccccc1)C(=O)Nc1ccccc1 [2o]
inhibition at 300 μM (%) [2]: 6.0 ± 0.64% | IC50 [2]: > 300 µM

O=C(CC(=O)OCc1ccccc1)NCCCC[C@H](NC(=O)OCc1ccccc1)C(=O)Nc1ccccc1 [2r]
inhibition at 300 μM (%) [2]: 71 ± 4.3% | IC50 [2]: 96 ± 4.8 µM

C[S+]([O-])CC(=O)NCCCC[C@H](NC(=O)OCc1ccccc1)C(=O)Nc1ccccc1 (stereo partly drawn) [2d]
inhibition at 300 μM (%) [2]: 46 ± 3.0% | IC50 [2]: > 300 µM

Cc1cc(=O)oc2cc(OC(=O)CCCOc3ccc(Cl)cc3Cl)ccc12 [compound 5366302]
% Activity at 50 μM [1]: 90% | % Activity at 500 μM [1]: 68%

[H]/N=C(\c1ccccc1Cc1cccc2ccccc12)c1ccc(C)c2ccccc12 [CSC24]
Sirt2 effect [3]: inhibition

CS(=O)(=O)CC(=O)NCCCC[C@H](NC(=O)OCc1ccccc1)C(=O)Nc1ccccc1 [2e]
inhibition at 300 μM (%) [2]: 56 ± 1.9%

Cc1ccc(OCCCC(=O)Oc2ccc3c(C)cc(=O)oc3c2)c(C)c1 [compound 7988362]
% Activity at 50 μM [1]: 90% | % Activity at 500 μM [1]: 51%

Nc1ccc2c(c1)C(=O)N(CCC(=O)O)C2 [compound 42071]
IC50 [1]: No inhibition

N#CCC(=O)NCCCC[C@H](NC(=O)OCc1ccccc1)C(=O)Nc1ccccc1 [2a]
inhibition at 300 μM (%) [2]: 50 ± 7.9%

O=C(CC(=O)C(F)(F)F)NCCCC[C@H](NC(=O)OCc1ccccc1)C(=O)Nc1ccccc1 [2y]
inhibition at 300 μM (%) [2]: 7.9 ± 0.92% | IC50 [2]: > 300 µM

CC(C)OC(=O)CC(=O)NCCCC[C@H](NC(=O)OCc1ccccc1)C(=O)Nc1ccccc1 [2m]
inhibition at 300 μM (%) [2]: 72 ± 5.1% | IC50 [2]: 47 ± 5.3 µM

O=C1c2ccccc2C(=O)N1CCBr [compound 91032]
IC50 [1]: No inhibition

O=C(CC(=O)OCC(F)(F)F)NCCCC[C@H](NC(=O)OCc1ccccc1)C(=O)Nc1ccccc1 [2q]
inhibition at 300 μM (%) [2]: 94 ± 1.5% | IC50 [2]: 15 ± 3.1 µM

Cc1cc(Cc2cc(C)c(O)c(C)c2)cc(C)c1O [compound 97252]
% Activity at 50 μM [1]: 89% | % Activity at 500 μM [1]: 43%

CCOC(=O)CC(=O)NCCCC[C@H](NC(=O)OCc1ccccc1)C(=O)Nc1ccccc1 [2k]
inhibition at 300 μM (%) [2]: 91 ± 1.3% | IC50 [2]: 3.9 ± 0.29 µM

O=C(Cc1ccccc1[N+](=O)[O-])NCCCC[C@H](NC(=O)OCc1ccccc1)C(=O)Nc1ccccc1 [2h]
inhibition at 300 μM (%) [2]: 40 ± 12% | IC50 [2]: > 300 µM

CSCC(=O)NCCCC[C@H](NC(=O)OCc1ccccc1)C(=O)Nc1ccccc1 [2c]
inhibition at 300 μM (%) [2]: 32 ± 20% | IC50 [2]: > 300 µM
